Experimental data published in ChEMBL document CHEMBL1201862, “PubChem BioAssay data set” (2004).
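Step 1: Grow cells in 96-well plates. Step 2: Expose to compound for 48 hours at 5 concentrations. Step 3: Interpolate endpoints linearly; if unreached, use highest concentration. GI50 = concentration required for 50% inhibition of growth.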 Calls of active or inactive are those of the source. Cut-off read from the data, not from the text of the source: active = GI50 up to about 1.1 µM and inactive = higher.

What was measured:
Test in all cases: growth of human tumour cells (NCI), 48 h
MOLT-4 = system: MOLT-4
SK-MEL-2 = system: SK-MEL-2
SF-295 = system: SF-295
U-251 = system: U-251
M14 = system: M14
HCT-116 = system: HCT-116
COLO 205 = system: COLO 205
OVCAR-4 = system: OVCAR-4
RPMI-8226 = system: RPMI-8226
LOX IMVI = system: LOX IMVI
NCI-H522 = system: NCI-H522
K562 = system: K562
786-0 = system: 786-0
UO-31 = system: UO-31
KM12 = system: KM12
SK-MEL-5 = system: SK-MEL-5
EKVX = system: EKVX
OVCAR-3 = system: OVCAR-3
SK-MEL-28 = system: SK-MEL-28
MDA-N = system: MDA-N

Measured: GI50

O=C(Nc1ccccc1)O/N=C(/CBr)c1ccccc1
inactive: MOLT-4 3.18 µM | SK-MEL-2 13.9 µM | SF-295 26 µM | U-251 14.5 µM | M14 6.79 µM | HCT-116 4.3 µM | COLO 205 15.7 µM | OVCAR-4 15.1 µM | RPMI-8226 16.3 µM | LOX IMVI 3.15 µM | NCI-H522 8.85 µM | K562 4.12 µM | 786-0 7.71 µM | UO-31 16.1 µM | KM12 17.9 µM | SK-MEL-5 11.9 µM | EKVX 17.1 µM | OVCAR-3 17.7 µM | SK-MEL-28 19.5 µM | MDA-N 6.87 µM

CC1(C)[C@H]2Cc3cc(-c4cc5c(cn4)[C@@H]4C[C@H]([C@@H]5[C@@H]5c6cc(-c7cc8c(cn7)[C@@H]7C[C@H](C8)C7(C)C)ncc6[C@@H]6C[C@H]5C6(C)C)C4(C)C)ncc3[C@@H]1C2
inactive: MOLT-4 > 100 µM | SK-MEL-2 > 100 µM | SF-295 > 100 µM | U-251 > 100 µM | M14 > 100 µM | HCT-116 > 100 µM | COLO 205 > 100 µM | RPMI-8226 > 100 µM | LOX IMVI > 100 µM | NCI-H522 > 100 µM | K562 > 100 µM | 786-0 > 100 µM | UO-31 > 100 µM | KM12 > 100 µM | SK-MEL-5 > 100 µM | EKVX > 100 µM | OVCAR-3 > 100 µM | SK-MEL-28 > 100 µM | MDA-N > 100 µM

Cc1ccc(S(=O)(=O)ON2C(=O)c3c(N)c(C#N)c(-c4ccccc4)c(-c4ccccc4)c3C2=O)cc1
inactive: MOLT-4 10.2 µM | SK-MEL-2 17.1 µM | SF-295 20 µM | U-251 16.2 µM | M14 13.6 µM | HCT-116 14.6 µM | COLO 205 17.3 µM | OVCAR-4 21.9 µM | RPMI-8226 11.1 µM | LOX IMVI 15.8 µM | NCI-H522 15.6 µM | K562 6.41 µM | 786-0 15.8 µM | KM12 51.1 µM | SK-MEL-5 17.1 µM | EKVX 14.6 µM | OVCAR-3 13.6 µM | SK-MEL-28 15.2 µM | MDA-N 16.4 µM

O=c1[nH]nc(Cc2ccccc2)n1/N=C/c1ccncc1
inactive: MOLT-4 > 100 µM | SF-295 > 100 µM | U-251 > 100 µM | M14 > 100 µM | HCT-116 > 100 µM | COLO 205 > 100 µM | OVCAR-4 > 100 µM | RPMI-8226 > 100 µM | LOX IMVI > 100 µM | NCI-H522 > 100 µM | K562 > 100 µM | 786-0 > 100 µM | UO-31 > 100 µM | KM12 > 100 µM | SK-MEL-5 64.4 µM | EKVX > 100 µM | OVCAR-3 > 100 µM | SK-MEL-28 > 100 µM | MDA-N > 100 µM

Nc1c(S(=O)(=O)O)cc(S(=O)(=O)O)c2ccc(/N=N/c3ccccc3)c(O)c12
inactive: SK-MEL-2 > 100 µM | SF-295 > 100 µM | U-251 > 100 µM | M14 > 100 µM | HCT-116 > 100 µM | COLO 205 > 100 µM | OVCAR-4 > 100 µM | RPMI-8226 > 100 µM | LOX IMVI > 100 µM | NCI-H522 > 100 µM | K562 43.3 µM | 786-0 > 100 µM | UO-31 > 100 µM | KM12 > 100 µM | SK-MEL-5 > 100 µM | EKVX > 100 µM | OVCAR-3 > 100 µM | SK-MEL-28 > 100 µM | MDA-N > 100 µM

O=C(O)CC(NC(=O)CP(=O)(O)O)C(=O)O (stereo not drawn)
inactive: MOLT-4 238 µM | SK-MEL-2 2470 µM | SF-295 44.9 µM | U-251 71.9 µM | M14 383 µM | HCT-116 21.5 µM | COLO 205 558 µM | OVCAR-4 2180 µM | RPMI-8226 244 µM | LOX IMVI 52.5 µM | NCI-H522 1650 µM | K562 94.8 µM | 786-0 40 µM | UO-31 690 µM | KM12 149 µM | SK-MEL-5 101 µM | EKVX 2000 µM | OVCAR-3 910 µM | MDA-N 221 µM

C(=C\N1CCCCC1)/c1nnnn1-c1ccccc1
inactive: MOLT-4 17.4 µM | SF-295 21.9 µM | U-251 21.1 µM | M14 14.1 µM | HCT-116 25.4 µM | COLO 205 > 100 µM | OVCAR-4 33.4 µM | RPMI-8226 21.1 µM | LOX IMVI 17.6 µM | NCI-H522 47 µM | K562 30.7 µM | 786-0 43.8 µM | UO-31 30 µM | KM12 56.8 µM | SK-MEL-5 23.3 µM | EKVX 23.5 µM | OVCAR-3 30.5 µM | SK-MEL-28 44.7 µM | MDA-N 32.3 µM

O=C(/N=N/c1cccc(Cl)c1)NNc1cccc(Cl)c1
inactive: MOLT-4 10.9 µM | SK-MEL-2 11.5 µM | U-251 18.7 µM | M14 14.4 µM | HCT-116 8.22 µM | OVCAR-4 10.3 µM | RPMI-8226 8.36 µM | LOX IMVI 12.9 µM | NCI-H522 21.9 µM | K562 10.6 µM | 786-0 15.1 µM | UO-31 8.49 µM | SK-MEL-5 17.9 µM | OVCAR-3 15 µM | SK-MEL-28 20.1 µM | MDA-N 13.1 µM

C=C1CCCCCCCCCCC12SCCC2CCCCSC (stereo not drawn)
inactive: MOLT-4 21.3 µM | SK-MEL-2 17.5 µM | SF-295 19.9 µM | U-251 17.9 µM | M14 19.9 µM | HCT-116 17.8 µM | COLO 205 19 µM | OVCAR-4 39.8 µM | RPMI-8226 24.4 µM | LOX IMVI 19.5 µM | NCI-H522 17.2 µM | K562 22.9 µM | 786-0 29.2 µM | UO-31 35 µM | SK-MEL-5 17.3 µM | EKVX 34.6 µM | OVCAR-3 16.7 µM | SK-MEL-28 26.5 µM | MDA-N 34.4 µM

CC(C)(C)[Si](C)(C)Oc1ccc(C2CNC(=O)C23CCC(=O)N3Cc2ccccc2)cc1 (stereo not drawn)
inactive: MOLT-4 6.14 µM | SK-MEL-2 16.6 µM | SF-295 13.9 µM | U-251 12.5 µM | M14 16.4 µM | HCT-116 22.2 µM | COLO 205 11.7 µM | OVCAR-4 13.7 µM | RPMI-8226 4.15 µM | LOX IMVI 16.1 µM | NCI-H522 10.7 µM | K562 7.24 µM | 786-0 18.9 µM | UO-31 16 µM | KM12 15.8 µM | SK-MEL-5 5.71 µM | EKVX 6.68 µM | OVCAR-3 12.5 µM | MDA-N 13.3 µM

Cc1ccc(N(C)S(=O)(=O)c2ccccc2[N+](=O)[O-])cc1
inactive: SK-MEL-2 30.8 µM | SF-295 52.1 µM | U-251 49.2 µM | M14 21.6 µM | HCT-116 39.1 µM | COLO 205 57.3 µM | OVCAR-4 41.7 µM | RPMI-8226 33.9 µM | LOX IMVI 32.4 µM | NCI-H522 24.6 µM | 786-0 > 100 µM | UO-31 40.5 µM | KM12 29.4 µM | EKVX 55.1 µM | OVCAR-3 44 µM | SK-MEL-28 44.9 µM | MDA-N 34.5 µM

COC(=O)C12CCC(C(=O)OC)(Cc3c(c4ccccc4n3S(=O)(=O)c3ccccc3)C1)C2=O (stereo not drawn)
inactive: SK-MEL-2 > 100 µM | SF-295 > 51.1 µM | U-251 > 100 µM | M14 > 63.8 µM | COLO 205 > 100 µM | OVCAR-4 > 61.7 µM | RPMI-8226 > 100 µM | LOX IMVI > 59.3 µM | NCI-H522 20 µM | K562 62.1 µM | 786-0 > 42.1 µM | UO-31 > 100 µM | KM12 > 100 µM | SK-MEL-5 9.29 µM | EKVX > 100 µM | OVCAR-3 > 61.8 µM | SK-MEL-28 > 100 µM | MDA-N > 100 µM

COc1ccc(/C=C/c2sc3ccccc3[n+]2CCCCI)cc1OC
inactive: MOLT-4 5.87 µM | SK-MEL-2 3.61 µM | SF-295 > 10 µM | U-251 6.67 µM | M14 > 10 µM | HCT-116 4.36 µM | OVCAR-4 > 10 µM | RPMI-8226 7.33 µM | LOX IMVI > 10 µM | NCI-H522 8.87 µM | K562 3.25 µM | 786-0 > 10 µM | UO-31 > 10 µM | KM12 6.25 µM | SK-MEL-5 5.55 µM | EKVX > 10 µM | OVCAR-3 5.47 µM | SK-MEL-28 > 10 µM | MDA-N 5.97 µM

n1onc2c1NC1Nc3nonc3NC1N2 (stereo not drawn)
inactive: MOLT-4 > 100 µM | SF-295 > 100 µM | U-251 > 100 µM | M14 > 100 µM | HCT-116 > 100 µM | COLO 205 > 100 µM | OVCAR-4 > 100 µM | RPMI-8226 > 100 µM | LOX IMVI > 100 µM | NCI-H522 > 100 µM | K562 > 100 µM | 786-0 > 100 µM | UO-31 > 100 µM | KM12 > 100 µM | SK-MEL-5 > 100 µM | EKVX > 100 µM | OVCAR-3 > 100 µM | SK-MEL-28 > 100 µM | MDA-N > 100 µM

CCCCC1Cc2cc(OC)ccc2-c2nc3cc(OC)ccc3n21.CCCCC1Cc2cc(OC)ccc2-c2nc3ccc(OC)cc3n21 (stereo not drawn)
inactive: MOLT-4 10.2 µM | U-251 15 µM | M14 15 µM | HCT-116 10.9 µM | COLO 205 4.9 µM | OVCAR-4 4.7 µM | RPMI-8226 6.81 µM | LOX IMVI 16.4 µM | NCI-H522 7.67 µM | K562 10.5 µM | 786-0 14.7 µM | UO-31 12.3 µM | KM12 18.7 µM | SK-MEL-5 14.3 µM | EKVX 12.6 µM | OVCAR-3 15 µM | MDA-N 14 µM
